Results as given in patent US20180155344A1, “TRICYCLIC PIPERIDINE COMPOUNDS” (ACTELION PHARMACEUTICALS LTD, priority 2015, published 2018).
Where a name gives a salt, the structure may show the parent alone.

Molecular target: T1, human TPH1 (Homo sapiens, UniProt P17752)
T1 sequence (P17752 1-444): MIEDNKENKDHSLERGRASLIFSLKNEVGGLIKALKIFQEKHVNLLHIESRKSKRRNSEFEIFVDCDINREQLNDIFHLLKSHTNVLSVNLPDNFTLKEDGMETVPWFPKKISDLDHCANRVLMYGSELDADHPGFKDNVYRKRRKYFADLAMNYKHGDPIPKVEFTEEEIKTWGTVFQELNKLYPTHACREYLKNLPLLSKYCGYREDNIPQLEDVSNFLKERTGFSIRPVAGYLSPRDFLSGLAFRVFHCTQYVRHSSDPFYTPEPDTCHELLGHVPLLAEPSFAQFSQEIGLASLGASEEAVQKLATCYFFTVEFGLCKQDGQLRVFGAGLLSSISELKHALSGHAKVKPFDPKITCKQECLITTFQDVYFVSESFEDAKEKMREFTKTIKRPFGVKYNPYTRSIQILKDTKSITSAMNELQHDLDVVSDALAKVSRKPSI
Assay: biochemical
Summary of the method: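 Inhibition is derived from 5-hydroxy-L-tryptophan fluorescence (540 nm emission, 300 nm excitation) after perchloric acid stop, relative to DMSO vehicle. Recombinant full-length human enzyme (40-80 nM) reacts with 40 μM tryptophan plus 100 μM methyltetrahydropterin, pH 7.6 Tris/DTT/catalase, 15° C, 60 min.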

## Cc1cc(C2c3c(nc4cc(C(F)(F)F)ccn34)CCN2C(=O)COc2ccc(CN3CCOCC3)cc2Cl)ccn1 (centres unmarked) [Example 3.57.2, 2-(2-chloro-4-(morpholinomethyl)phenoxy)-1-(1-(2-methylpyridin-4-yl)-7-(trifluoromethyl)-3,4-dihydroimidazo[1,2-a:5,4-c′]dipyridin-2(1H)-yl)ethan-1-one]
  IC50: 35 nM

## O=C(COc1ccc(CN2CCOCC2)cc1Cl)N1CCc2nc3cc(C(F)(F)F)ccn3c2C1c1ccc(Cl)cn1 (centres unmarked) [Example 3.58.1, 2-(2-chloro-4-(morpholinomethyl)phenoxy)-1-(1-(5-chloropyridin-2-yl)-7-(trifluoromethyl)-3,4-dihydroimidazo[1,2-a:5,4-c′]dipyridin-2(1H)-yl)ethan-1-one]
  IC50: 30 nM

## Cc1nc(C)c(C2c3c(nc4cc(C(F)(F)F)ccn34)CCN2C(=O)COc2ccc(-c3ncco3)nc2Cl)s1 (centres unmarked) [Example 3.59.1, 2-((2-chloro-6-(oxazol-2-yl)pyridin-3-yl)oxy)-1-(1-(2,4-dimethylthiazol-5-yl)-7-(trifluoromethyl)-3,4-dihydroimidazo[1,2-a:5,4-c′]dipyridin-2(1H)-yl)ethan-1-one]
  IC50: 22 nM

## Cc1nc(C)c(C2c3c(nc4cc(C(F)(F)F)ccn34)CCN2C(=O)COc2ccc(C(=O)N(C)C3CC3)nc2Cl)s1 (centres unmarked) [Example 3.59.2, 6-chloro-N-cyclopropyl-5-(2-(1-(2,4-dimethylthiazol-5-yl)-7-(trifluoromethyl)-3,4-dihydroimidazo[1,2-a:5,4-c′]dipyridin-2(1H)-yl)-2-oxoethoxy)-N-methylpicolinamide]
  IC50: 42 nM

## COc1ccc(C2c3c(nc4cc(C)ccn34)CCN2C(=O)COc2ccc(Cl)cc2Cl)cc1OC (centres unmarked) [Example 4.1.1, 2-(2,4-dichlorophenoxy)-1-(1-(3,4-dimethoxyphenyl)-7-methyl-3,4-dihydroimidazo[1,2-a:5,4-c′]dipyridin-2(1H)-yl)ethan-1-one]
  IC50: 32 nM

## COc1ccc(C2c3c(nc4cc(C)ccn34)CCN2C(=O)COc2ccc3ccccc3c2)cc1OC (centres unmarked) [Example 4.1.2, 1-(1-(3,4-dimethoxyphenyl)-7-methyl-3,4-dihydroimidazo[1,2-a:5,4-c′]dipyridin-2(1H)-yl)-2-(naphthalen-2-yloxy)ethan-1-one]
  IC50: 10 nM

## COc1ccc(C2c3c(nc4cc(C(C)(C)C)ccn34)CCN2C(=O)COc2ccc(Cl)cc2Cl)cc1OC (centres unmarked) [Example 5.1.1, 1-(7-(tert-butyl)-1-(3,4-dimethoxyphenyl)-3,4-dihydroimidazo[1,2-a:5,4-c′]dipyridin-2(1H)-yl)-2-(2,4-dichlorophenoxy)ethan-1-one]
  IC50: 10 nM

## CCc1cc2nc3c(n2cc1C)C(c1ccc(OC)c(OC)c1)N(C(=O)COc1ccc(Cl)cc1Cl)CC3 (centres unmarked) [Example 6.1.1, 2-(2,4-dichlorophenoxy)-1-(1-(3,4-dimethoxyphenyl)-7-ethyl-8-methyl-3,4-dihydroimidazo[1,2-a:5,4-c′]dipyridin-2(1H)-yl)ethan-1-one]
  IC50: 16 nM

## CCc1cc2nc3c(n2cc1C)C(c1ccc(OC)c(OC)c1)N(C(=O)COc1ccc2ccccc2c1)CC3 (centres unmarked) [Example 6.1.2, 1-(1-(3,4-dimethoxyphenyl)-7-ethyl-8-methyl-3,4-dihydroimidazo[1,2-a:5,4-c′]dipyridin-2(1H)-yl)-2-(naphthalen-2-yloxy)ethan-1-one]
  IC50: 9 nM

## CCc1cc2nc3c(n2cc1C)C(c1ccc(OC)c(OC)c1)N(C(=O)COc1ccc2ccccc2c1CC)CC3 (centres unmarked) [Example 6.1.3, 1-(1-(3,4-dimethoxyphenyl)-7-ethyl-8-methyl-3,4-dihydroimidazo[1,2-a:5,4-c′]dipyridin-2(1H)-yl)-2-((1-ethylnaphthalen-2-yl)oxy)ethan-1-one]
  IC50: 9 nM

## CCc1cc2nc3c(n2cc1C)C(c1ccc(OC)c(OC)c1)N(C(=O)COc1ccc2ccccc2c1C)CC3 (centres unmarked) [Example 6.1.4, 1-(1-(3,4-dimethoxyphenyl)-7-ethyl-8-methyl-3,4-dihydroimidazo[1,2-a:5,4-c′]dipyridin-2(1H)-yl)-2-((1-methylnaphthalen-2-yl)oxy)ethan-1-one hydrochloride]
  IC50: 8 nM

## COc1ccc(C2c3c(nc4ccc(C)cn34)CCN2C(=O)COc2ccc(Cl)cc2Cl)cc1OC (centres unmarked) [Example 7.1.1, 2-(2,4-dichlorophenoxy)-1-(1-(3,4-dimethoxyphenyl)-8-methyl-3,4-dihydroimidazo[1,2-a:5,4-c′]dipyridin-2(1H)-yl)ethan-1-one]
  IC50: 89 nM

## COc1ccc(C2c3c(nc4ccc(C)cn34)CCN2C(=O)COc2ccc3ccccc3c2)cc1OC (centres unmarked) [Example 7.1.2, 1-(1-(3,4-dimethoxyphenyl)-8-methyl-3,4-dihydroimidazo[1,2-a:5,4-c′]dipyridin-2(1H)-yl)-2-(naphthalen-2-yloxy)ethan-1-one]
  IC50: 38 nM

## COc1ccc(C2c3c(nc4ccc(-c5ccccc5)cn34)CCN2C(=O)COc2ccc3ccccc3c2)cc1OC (centres unmarked) [Example 8.1.1, 1-(1-(3,4-dimethoxyphenyl)-8-phenyl-3,4-dihydroimidazo[1,2-a:5,4-c′]dipyridin-2(1H)-yl)-2-(naphthalen-2-yloxy)ethan-1-one]
  IC50: 38 nM

## COc1ccc(C2c3c(nc4ccc(Cl)cn34)CCN2C(=O)COc2ccc3ccccc3c2)cc1OC (centres unmarked) [Example 9.1.1, 1-(8-chloro-1-(3,4-dimethoxyphenyl)-3,4-dihydroimidazo[1,2-a:5,4-c′]dipyridin-2(1H)-yl)-2-(naphthalen-2-yloxy)ethan-1-one]
  IC50: 145 nM

## COc1ccc(C2c3c(nc4ccc(Br)cn34)CCN2C(=O)COc2ccc3ccccc3c2)cc1OC (centres unmarked) [Example 10.1.1, 1-(8-bromo-1-(3,4-dimethoxyphenyl)-3,4-dihydroimidazo[1,2-a:5,4-c′]dipyridin-2(1H)-yl)-2-(naphthalen-2-yloxy)ethan-1-one]
  IC50: 124 nM

## COc1ccc(C2c3c(nc4ccc(F)cn34)CCN2C(=O)COc2ccc3ccccc3c2)cc1OC (centres unmarked) [Example 11.1.1, 1-(1-(3,4-dimethoxyphenyl)-8-fluoro-3,4-dihydroimidazo[1,2-a:5,4-c′]dipyridin-2(1H)-yl)-2-(naphthalen-2-yloxy)ethan-1-one]
  IC50: 122 nM

## CS(=O)(=O)Nc1ccc(OCC(=O)N2CCc3nc4ccc(F)cn4c3C2c2ccc(Cl)cc2F)c(Cl)n1 (centres unmarked) [Example 11.2.1, N-(6-chloro-5-(2-(1-(4-chloro-2-fluorophenyl)-8-fluoro-3,4-dihydroimidazo[1,2-a:5,4-c′]dipyridin-2(1H)-yl)-2-oxoethoxy)pyridin-2-yl)methanesulfonamide]
  IC50: 72 nM

## CCc1nc(NS(C)(=O)=O)ccc1OCC(=O)N1CCc2nc3ccc(F)cn3c2C1c1ccc(Cl)cc1F (centres unmarked) [Example 11.2.2, N-(5-(2-(1-(4-chloro-2-fluorophenyl)-8-fluoro-3,4-dihydroimidazo[1,2-a:5,4-c′]dipyridin-2(1H)-yl)-2-oxoethoxy)-6-ethylpyridin-2-yl)methanesulfonamide]
  IC50: 34 nM

## CCc1nc(NS(C)(=O)=O)ccc1OCC(=O)N1CCc2nc3ccc(F)cn3c2C1c1sc(C)nc1C (centres unmarked) [Example 11.3.1, N-(5-(2-(1-(2,4-dimethylthiazol-5-yl)-8-fluoro-3,4-dihydroimidazo[1,2-a:5,4-c′]dipyridin-2(1H)-yl)-2-oxoethoxy)-6-ethylpyridin-2-yl)methanesulfonamide]
  IC50: 48 nM

## COc1ccc(C2c3c(nc4ccc(C(F)(F)F)cn34)CCN2C(=O)COc2ccc3ccccc3c2)cc1OC (centres unmarked) [Example 12.1.1, 1-(1-(3,4-dimethoxyphenyl)-8-(trifluoromethyl)-3,4-dihydroimidazo[1,2-a:5,4-c′]dipyridin-2(1H)-yl)-2-(naphthalen-2-yloxy)ethan-1-one]
  IC50: 183 nM

## COc1ccc(C2c3c(nc4cc(Cl)c(C)cn34)CCN2C(=O)COc2ccc3ccccc3c2)cc1OC (centres unmarked) [Example 13.1.1, 1-(7-chloro-1-(3,4-dimethoxyphenyl)-8-methyl-3,4-dihydroimidazo[1,2-a:5,4-c′]dipyridin-2(1H)-yl)-2-(naphthalen-2-yloxy)ethan-1-one]
  IC50: 40 nM

## CS(=O)(=O)Nc1ccc(OCC(=O)N2CCc3nc4cc(F)ccn4c3C2c2ccc(Cl)cc2F)c(Cl)n1 (centres unmarked) [Example 14.1.1, N-(6-chloro-5-(2-(1-(4-chloro-2-fluorophenyl)-7-fluoro-3,4-dihydroimidazo[1,2-a:5,4-c′]dipyridin-2(1H)-yl)-2-oxoethoxy)pyridin-2-yl)methanesulfonamide]
  IC50: 74 nM

## CS(=O)(=O)Nc1ccc(OCC(=O)N2CCc3nc4c(F)cccn4c3C2c2ccc(Cl)cc2F)c(Cl)n1 (centres unmarked) [Example 15.1.1, N-(6-chloro-5-(2-(1-(4-chloro-2-fluorophenyl)-6-fluoro-3,4-dihydroimidazo[1,2-a:5,4-c′]dipyridin-2(1H)-yl)-2-oxoethoxy)pyridin-2-yl)methanesulfonamide]
  IC50: 2650 nM

## O=C(COc1ccc(N2CCOCC2)cc1Cl)N1CCc2nc3cccnn3c2C1c1ccc(C2CC2)cc1F (centres unmarked) [Example 16.1.1, 2-(2-chloro-4-morpholinophenoxy)-1-(9-(4-cyclopropyl-2-fluorophenyl)-6,9-dihydropyrido[4′,3′:4,5]imidazo[1,2-b]pyridazin-8(7H)-yl)ethan-1-one]
  IC50: 19 nM

## O=C(COc1ccc(N2CCOCC2)nc1Cl)N1CCc2nc3cccnn3c2C1c1ccc(C2CC2)cc1F (centres unmarked) [Example 16.1.2, 2-((2-chloro-6-morpholinopyridin-3-yl)oxy)-1-(9-(4-cyclopropyl-2-fluorophenyl)-6,9-dihydropyrido[4′,3′:4,5]imidazo[1,2-b]pyridazin-8(7H)-yl)ethan-1-one]
  IC50: 8 nM
